Assay results from ChEMBL document CHEMBL4507324 (2021).

How the values were obtained:
Details in all cases: Compound concentration 100.0 nM
[1] = biological target: Activin receptor type-2A (Homo sapiens) (UniProt P27037)
[2] = biological target: Atypical kinase COQ8B, mitochondrial (Homo sapiens) (UniProt Q96D53)
[3] = tested on: ALK tyrosine kinase receptor (Homo sapiens), Q9UM73 [L1196M]
[4] = biological target: 5'-AMP-activated protein kinase catalytic subunit alpha-1 (Homo sapiens) (UniProt Q13131)
[5] = biological target: Tyrosine-protein kinase receptor UFO (Homo sapiens) (UniProt P30530)
[6] = biological target: Tyrosine-protein kinase BTK (Homo sapiens) (UniProt Q06187)
[7] = biological target: Calcium/calmodulin-dependent protein kinase type IV (Homo sapiens) (UniProt Q16566)
[8] = biological target: Calcium/calmodulin-dependent protein kinase kinase 1 (Homo sapiens) (UniProt Q8N5S9)
[9] = biological target: Cyclin-dependent kinase 19 (Homo sapiens) (UniProt Q9BWU1)
Chain of Cyclin-dependent kinase 19 (Homo sapiens) (Q9BWU1 whole entry): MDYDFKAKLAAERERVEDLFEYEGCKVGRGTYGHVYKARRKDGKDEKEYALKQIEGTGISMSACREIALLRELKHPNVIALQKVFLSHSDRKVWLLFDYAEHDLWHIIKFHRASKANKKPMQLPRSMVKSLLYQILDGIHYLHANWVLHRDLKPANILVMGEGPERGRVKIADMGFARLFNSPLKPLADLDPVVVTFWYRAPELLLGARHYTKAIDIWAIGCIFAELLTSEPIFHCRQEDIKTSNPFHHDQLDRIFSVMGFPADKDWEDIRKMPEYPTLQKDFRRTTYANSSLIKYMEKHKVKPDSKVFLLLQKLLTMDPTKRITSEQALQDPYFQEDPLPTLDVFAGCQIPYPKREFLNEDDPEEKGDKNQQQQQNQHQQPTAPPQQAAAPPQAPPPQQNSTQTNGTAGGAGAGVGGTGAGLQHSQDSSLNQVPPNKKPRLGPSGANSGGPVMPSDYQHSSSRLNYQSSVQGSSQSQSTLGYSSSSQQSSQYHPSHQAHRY

[10] = biological target: Cyclin-dependent kinase 4 (Homo sapiens) (UniProt P11802)
[11] = biological target: Macrophage colony-stimulating factor 1 receptor (Homo sapiens) (UniProt P07333)
[12] = biological target: Casein kinase I isoform gamma-1 (Homo sapiens) (UniProt Q9HCP0)
[13] = tested on: Epidermal growth factor receptor (Homo sapiens), P00533 [UNDEFINED MUTATION]
[14] = biological target: Ephrin type-A receptor 2 (Homo sapiens) (UniProt P29317)
[15] = biological target: Ephrin type-B receptor 3 (Homo sapiens) (UniProt P54753)
[16] = biological target: Fibroblast growth factor receptor 3 (Homo sapiens) (UniProt P22607)
[17] = biological target: Tyrosine-protein kinase Fgr (Homo sapiens) (UniProt P09769)
Chain of Tyrosine-protein kinase Fgr (Homo sapiens) (P09769 2-529 limits assumed): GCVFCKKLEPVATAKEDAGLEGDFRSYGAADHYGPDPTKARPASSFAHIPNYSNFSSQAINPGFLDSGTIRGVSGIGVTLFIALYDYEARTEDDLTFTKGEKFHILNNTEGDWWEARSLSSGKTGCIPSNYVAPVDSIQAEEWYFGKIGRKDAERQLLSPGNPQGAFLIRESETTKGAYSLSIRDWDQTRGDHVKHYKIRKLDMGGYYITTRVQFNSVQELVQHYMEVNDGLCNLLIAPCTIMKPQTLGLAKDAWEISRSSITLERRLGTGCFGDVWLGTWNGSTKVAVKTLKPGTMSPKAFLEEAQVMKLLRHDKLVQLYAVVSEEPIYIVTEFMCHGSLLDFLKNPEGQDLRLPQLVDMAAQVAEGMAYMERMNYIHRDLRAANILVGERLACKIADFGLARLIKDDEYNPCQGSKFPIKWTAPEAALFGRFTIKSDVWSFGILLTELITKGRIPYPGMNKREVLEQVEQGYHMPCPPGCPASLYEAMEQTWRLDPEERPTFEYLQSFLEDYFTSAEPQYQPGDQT

[18] = tested on: Receptor-type tyrosine-protein kinase FLT3 (Homo sapiens), P36888 [D835H]
[19] = biological target: Serine/threonine-protein kinase ICK (Homo sapiens) (UniProt Q9UPZ9)
[20] = biological target: Tyrosine-protein kinase ITK/TSK (Homo sapiens) (UniProt Q08881)
[21] = biological target: Tyrosine-protein kinase JAK2 (Homo sapiens) (UniProt O60674)
Chain of Tyrosine-protein kinase JAK2 (Homo sapiens) (O60674 whole entry): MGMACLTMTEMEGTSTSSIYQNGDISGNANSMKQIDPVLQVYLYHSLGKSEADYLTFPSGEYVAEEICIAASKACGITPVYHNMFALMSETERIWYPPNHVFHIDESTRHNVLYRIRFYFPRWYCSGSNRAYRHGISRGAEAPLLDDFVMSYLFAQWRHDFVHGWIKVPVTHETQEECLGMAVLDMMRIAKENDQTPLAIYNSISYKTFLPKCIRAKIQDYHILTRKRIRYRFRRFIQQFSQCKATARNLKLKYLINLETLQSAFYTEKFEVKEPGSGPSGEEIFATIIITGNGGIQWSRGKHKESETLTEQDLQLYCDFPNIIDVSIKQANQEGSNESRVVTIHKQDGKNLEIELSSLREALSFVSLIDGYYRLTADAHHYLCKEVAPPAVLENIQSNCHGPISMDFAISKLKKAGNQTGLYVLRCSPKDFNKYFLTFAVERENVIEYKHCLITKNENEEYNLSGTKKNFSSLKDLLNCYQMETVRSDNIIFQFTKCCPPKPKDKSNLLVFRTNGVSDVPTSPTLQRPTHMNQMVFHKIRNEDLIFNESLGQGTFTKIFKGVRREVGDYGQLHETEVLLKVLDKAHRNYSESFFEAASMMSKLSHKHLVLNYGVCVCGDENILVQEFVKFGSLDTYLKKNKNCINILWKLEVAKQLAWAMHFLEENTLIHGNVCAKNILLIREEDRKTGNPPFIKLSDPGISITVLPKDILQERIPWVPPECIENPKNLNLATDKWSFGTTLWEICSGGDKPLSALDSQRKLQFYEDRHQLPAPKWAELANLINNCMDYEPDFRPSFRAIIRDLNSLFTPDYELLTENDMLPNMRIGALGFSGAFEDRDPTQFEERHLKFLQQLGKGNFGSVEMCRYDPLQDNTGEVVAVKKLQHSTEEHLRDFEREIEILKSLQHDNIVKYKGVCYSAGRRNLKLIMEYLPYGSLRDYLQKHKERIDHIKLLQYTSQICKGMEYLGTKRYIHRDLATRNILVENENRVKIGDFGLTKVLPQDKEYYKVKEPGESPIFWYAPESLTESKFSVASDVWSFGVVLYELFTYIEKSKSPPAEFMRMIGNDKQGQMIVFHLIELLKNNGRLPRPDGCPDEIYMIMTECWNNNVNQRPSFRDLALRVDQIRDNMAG

[22] = tested on: Mast/stem cell growth factor receptor Kit (Homo sapiens), P10721 [L576P]
[23] = biological target: Serine/threonine-protein kinase STK11 (Homo sapiens) (UniProt Q15831)
Chain of Serine/threonine-protein kinase STK11 (Homo sapiens) (Q15831 whole entry): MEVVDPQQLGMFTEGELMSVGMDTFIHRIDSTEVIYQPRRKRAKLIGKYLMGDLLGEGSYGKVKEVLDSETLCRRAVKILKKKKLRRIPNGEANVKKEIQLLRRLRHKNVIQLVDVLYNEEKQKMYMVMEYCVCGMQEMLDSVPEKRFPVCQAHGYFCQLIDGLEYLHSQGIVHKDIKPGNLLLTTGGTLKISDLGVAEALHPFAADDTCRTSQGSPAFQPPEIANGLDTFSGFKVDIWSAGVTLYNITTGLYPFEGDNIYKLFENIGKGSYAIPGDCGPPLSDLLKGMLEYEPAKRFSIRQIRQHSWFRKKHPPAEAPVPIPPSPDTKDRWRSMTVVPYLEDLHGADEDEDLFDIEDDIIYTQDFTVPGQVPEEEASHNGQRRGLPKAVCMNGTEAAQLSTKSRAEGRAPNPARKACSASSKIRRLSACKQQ

[24] = biological target: Mitogen-activated protein kinase kinase kinase 2 (Homo sapiens) (UniProt Q9Y2U5)
[25] = biological target: Mitogen-activated protein kinase kinase kinase kinase 5 (Homo sapiens) (UniProt Q9Y4K4)
[26] = biological target: MAP kinase-activated protein kinase 5 (Homo sapiens) (UniProt Q8IW41)
[27] = biological target: Mitogen-activated protein kinase kinase kinase 11 (Homo sapiens) (UniProt Q16584)
[28] = biological target: Serine/threonine-protein kinase 26 (Homo sapiens) (UniProt Q9P289)
Chain of Serine/threonine-protein kinase 26 (Homo sapiens) (Q9P289 2-416 limits assumed): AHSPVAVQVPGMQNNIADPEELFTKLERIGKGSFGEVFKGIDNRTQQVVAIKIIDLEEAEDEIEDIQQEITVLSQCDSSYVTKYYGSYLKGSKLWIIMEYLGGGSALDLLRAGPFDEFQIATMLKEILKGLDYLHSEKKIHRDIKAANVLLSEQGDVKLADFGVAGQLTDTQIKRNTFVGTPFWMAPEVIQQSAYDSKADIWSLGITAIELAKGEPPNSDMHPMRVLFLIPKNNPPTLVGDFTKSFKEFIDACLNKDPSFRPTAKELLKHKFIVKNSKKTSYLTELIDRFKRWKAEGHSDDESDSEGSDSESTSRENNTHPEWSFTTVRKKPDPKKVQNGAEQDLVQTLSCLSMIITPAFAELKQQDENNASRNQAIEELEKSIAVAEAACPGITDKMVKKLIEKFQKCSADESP

[29] = biological target: Serine/threonine-protein kinase Nek2 (Homo sapiens) (UniProt P51955)
[30] = biological target: Serine/threonine-protein kinase Nek7 (Homo sapiens) (UniProt Q8TDX7)
[31] = biological target: Calcium-dependent protein kinase 1 (Plasmodium falciparum) (UniProt P62344)
[32] = biological target: Phosphatidylinositol 4-phosphate 3-kinase C2 domain-containing subunit beta (Homo sapiens) (UniProt O00750)
[33] = biological target: Serine/threonine-protein kinase pim-3 (Homo sapiens) (UniProt Q86V86)
[34] = biological target: cAMP-dependent protein kinase catalytic subunit beta (Homo sapiens) (UniProt P22694)
[35] = biological target: Serine/threonine-protein kinase PLK1 (Homo sapiens) (UniProt P53350)
[36] = biological target: Proto-oncogene tyrosine-protein kinase receptor Ret (Homo sapiens) (UniProt P07949)
[37] = tested on: Proto-oncogene tyrosine-protein kinase receptor Ret (Homo sapiens), P07949 [V804L]
[38] = biological target: Serine/threonine-protein kinase RIO2 (Homo sapiens) (UniProt Q9BVS4)
Chain of Serine/threonine-protein kinase RIO2 (Homo sapiens) (Q9BVS4 whole entry, looked up): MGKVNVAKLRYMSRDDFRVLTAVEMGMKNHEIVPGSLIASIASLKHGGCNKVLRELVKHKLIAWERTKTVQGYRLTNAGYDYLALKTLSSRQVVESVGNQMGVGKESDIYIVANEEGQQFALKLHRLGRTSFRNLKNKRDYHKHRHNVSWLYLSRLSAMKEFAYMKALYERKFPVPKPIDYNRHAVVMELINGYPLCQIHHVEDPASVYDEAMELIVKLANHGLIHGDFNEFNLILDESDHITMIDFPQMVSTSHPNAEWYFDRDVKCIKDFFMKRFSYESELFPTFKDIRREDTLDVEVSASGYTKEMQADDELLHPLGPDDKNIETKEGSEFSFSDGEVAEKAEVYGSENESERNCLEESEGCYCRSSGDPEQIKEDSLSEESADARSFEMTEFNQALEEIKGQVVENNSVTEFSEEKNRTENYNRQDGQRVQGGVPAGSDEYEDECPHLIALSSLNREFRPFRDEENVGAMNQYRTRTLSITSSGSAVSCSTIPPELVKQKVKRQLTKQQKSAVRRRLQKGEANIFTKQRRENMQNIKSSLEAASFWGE

[39] = biological target: Rho-associated protein kinase 1 (Homo sapiens) (UniProt Q13464)
[40] = biological target: Serine/threonine-protein kinase SIK1 (Homo sapiens) (UniProt P57059)
[41] = biological target: Serine/threonine-protein kinase SIK2 (Homo sapiens) (UniProt Q9H0K1)
Chain of Serine/threonine-protein kinase SIK2 (Homo sapiens) (Q9H0K1 whole entry, looked up): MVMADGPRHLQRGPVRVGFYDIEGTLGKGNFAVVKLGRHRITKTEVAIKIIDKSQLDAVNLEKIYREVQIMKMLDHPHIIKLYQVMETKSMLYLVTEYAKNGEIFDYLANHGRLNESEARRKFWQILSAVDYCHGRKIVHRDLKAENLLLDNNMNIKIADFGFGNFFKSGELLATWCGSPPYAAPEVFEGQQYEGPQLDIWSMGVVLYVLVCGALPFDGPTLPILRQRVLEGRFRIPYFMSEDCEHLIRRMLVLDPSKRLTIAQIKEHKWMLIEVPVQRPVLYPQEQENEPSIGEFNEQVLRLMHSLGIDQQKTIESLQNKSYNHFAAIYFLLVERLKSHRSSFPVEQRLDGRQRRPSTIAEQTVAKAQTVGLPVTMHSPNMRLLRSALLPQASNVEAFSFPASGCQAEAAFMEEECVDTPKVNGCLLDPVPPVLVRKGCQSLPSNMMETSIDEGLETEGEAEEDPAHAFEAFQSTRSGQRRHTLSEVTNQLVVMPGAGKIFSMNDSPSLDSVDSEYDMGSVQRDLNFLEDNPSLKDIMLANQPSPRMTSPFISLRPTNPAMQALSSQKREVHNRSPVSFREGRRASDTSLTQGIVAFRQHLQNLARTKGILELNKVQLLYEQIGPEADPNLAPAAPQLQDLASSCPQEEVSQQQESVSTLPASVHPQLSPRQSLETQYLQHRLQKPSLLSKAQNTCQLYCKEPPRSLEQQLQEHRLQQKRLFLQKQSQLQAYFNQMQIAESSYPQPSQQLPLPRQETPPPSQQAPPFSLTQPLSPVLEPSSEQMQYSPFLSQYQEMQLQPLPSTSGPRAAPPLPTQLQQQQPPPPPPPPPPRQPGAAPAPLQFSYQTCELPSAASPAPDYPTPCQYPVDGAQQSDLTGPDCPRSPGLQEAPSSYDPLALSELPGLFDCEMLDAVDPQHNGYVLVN

[42] = biological target: NUAK family SNF1-like kinase 2 (Homo sapiens) (UniProt Q9H093)
[43] = biological target: TGF-beta receptor type-2 (Homo sapiens) (UniProt P37173)
[44] = biological target: Serine/threonine-protein kinase 32A (Homo sapiens) (UniProt Q8WU08)
[45] = biological target: Serine/threonine-protein kinase 25 (Homo sapiens) (UniProt O00506)

Measured: residual activity

Chain of Atypical kinase COQ8B, mitochondrial (Homo sapiens) (Q96D53 whole entry): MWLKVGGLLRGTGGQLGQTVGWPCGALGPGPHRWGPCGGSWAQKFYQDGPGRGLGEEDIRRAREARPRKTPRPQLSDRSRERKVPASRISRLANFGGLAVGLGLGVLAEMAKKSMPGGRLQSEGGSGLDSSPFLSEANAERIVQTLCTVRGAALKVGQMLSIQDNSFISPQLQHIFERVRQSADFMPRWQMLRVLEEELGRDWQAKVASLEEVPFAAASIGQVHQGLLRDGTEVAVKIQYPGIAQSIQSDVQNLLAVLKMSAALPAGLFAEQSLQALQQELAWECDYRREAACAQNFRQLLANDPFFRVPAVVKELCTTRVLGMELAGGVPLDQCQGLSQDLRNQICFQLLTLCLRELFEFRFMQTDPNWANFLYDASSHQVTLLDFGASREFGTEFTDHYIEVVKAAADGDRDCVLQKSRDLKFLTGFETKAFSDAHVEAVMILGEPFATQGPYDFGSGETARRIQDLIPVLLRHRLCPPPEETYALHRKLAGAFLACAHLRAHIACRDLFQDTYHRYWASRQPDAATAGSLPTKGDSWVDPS

CS(=O)(=O)N1CCCC(NC(=O)[C@H](CCC2CCCCC2)NC(=O)c2ccc(CNc3ncnc4c3nnn4-c3ccccc3)cc2)C1 (stereo not given in full) [SR-301]
inactive: [1] 68% | [2] 100% | [3] 100% | [4] 100% | [5] 79% | [6] 100% | [7] 98% | [8] 88% | [9] 90% | [10] 100% | [11] 100% | [12] 100% | [13] 94% | [14] 100% | [15] 91% | [16] 100% | [17] 88% | [18] 94% | [19] 100% | [20] 100% | [21] 100% | [22] 78% | [23] 100% | [24] 100% | [25] 76% | [26] 100% | [27] 92% | [28] 92% | [29] 100% | [30] 88% | [31] 100% | [32] 95% | [33] 100% | [34] 92% | [35] 80% | [36] 87% | [37] 83% | [38] 99% | [39] 93% | [40] 100% | [41] 86% | [42] 100% | [43] 93% | [44] 57% | [45] 90%

CS(=O)(=O)N1CCCC(NC(=O)[C@H](CCC2CCCCC2)NC(=O)c2ccc(CNC(=O)c3cnc4ccccn34)cc2)C1 (stereo not given in full) [SR-302]
inactive: [1] 100% | [2] 100% | [3] 94% | [4] 100% | [5] 96% | [6] 100% | [7] 94% | [8] 84% | [9] 100% | [10] 100% | [11] 100% | [12] 100% | [13] 100% | [14] 100% | [15] 87% | [16] 100% | [17] 87% | [18] 100% | [19] 100% | [20] 90% | [21] 100% | [22] 55% | [23] 51% | [24] 100% | [25] 100% | [26] 100% | [27] 100% | [28] 100% | [29] 86% | [30] 100% | [31] 78% | [32] 100% | [33] 99% | [34] 100% | [35] 100% | [36] 85% | [37] 98% | [38] 100% | [39] 100% | [40] 92% | [41] 100% | [42] 100% | [43] 91% | [44] 81% | [45] 100%
